Values joined by “and” are separate entries in the source; they are usually repeats but may differ in a detail not shown here. Equal entries are not always repeated.
What was measured:
male Wistar rats [1] = experiment: Sperm motility in hypogonadotropic hypogonadism simulated with Synestrol; format: in vivo, rat; conditions: Synestrol 50 U/kg/day, Treamid 0.5 mg/kg or Tribestan 70 mg/kg intraperitoneally Day 31-45
Description: Hypogonadotropic hypogonadism was simulated by the administration of Synestrol. Estrogens are able to inhibit the secretion of LH (Luteinizing hormone) and FSH (follicle stimulating hormone). An increase in the concentration of estrogens in a male body is accompanied by an increase in the content of sex-steroid-binding globulins, which leads to a decrease in the concentration of free testosterone and to the appearance of asthenospermia.
Experiments were performed on 36 male Wistar rats (3 months of age). For 30 days after the beginning of the experiment, all male rats (except for the background group) were intramuscularly injected with Synestrol at a dose of 50 U/kg/day. Further, from Day 31 to Day 45 of the experiment, the animals of the experimental group, in addition to Synestrol, were intraperitoneally administered Treamid at dose of 0.5 mg/kg or reference drug Tribestan at a dose of 70 mg/kg. The effectiveness of Treamid was estimated by the number of motile sperm forms (percentage of motile sperm forms) isolated from the epididymis. The results of the studies were compared with those for the administration of Synestrol (control) and reference drug Tribestan.

male Wistar rats [2] = experiment: Chronic abacterial prostatitis (CAP) model, prostate weight and morphometry; format: in vivo, rat
Description: This is manifested in a decrease in the severity of the morphological changes typical in these diseases. CAP was simulated by suturing the ventral lobe of the gland with a silk thread, and BPH was simulated by the administration of Sulpiride. The reference drug was Prostamol Uno.
Treamid were administered intragastrically to animals with CAP at a dose of 0.5 mg/kg for 15 days.
Experiments were performed on 40 male Wistar rats (3 months of age). To simulate chronic abacterial prostatitis, the ventral lobe of the prostate was sutured with a silk thread (under anesthesia). The model of benign prostatic hyperplasia (BPH) was simulated in rats by inducing hyperprolactinaemia, for which male rats were intraperitoneally injected with Sulpiride at a dose of 40 mg/kg every day for 2 months (Eglonil, Sanofi Winthrop Industry, France).
One month after the surgery, the animals of the experimental group were intraperitoneally administered Treamid at a dose of 0.5 mg/kg once daily for 15 days. At the end of the administration course, the animals were weighed and euthanized in a CO2 chamber. The ventral lobe of the gland was then dissected, weighed, and its volume was measured, followed by the calculation of a weight coefficient, and subjected to morphological analysis. For this purpose, the prostate was fixed in formalin and poured into paraffin. Paraffin sections of a thickness of 5 μm were stained with hematoxylin-eosin according to Van Gieson on the connective tissue, to calculate the relative area of the epithelium. Further, the severity of atrophic processes and developing sclerosis was qualitatively assessed. The assessment was carried out on standard area of the gland section by using a computer graphic analysis (micrographs of 10 serial visual fields performed by an AxioCam Erc5s camera mounted on an AxioLab A1 microscope (×10 lens, ×10 eyepiece), with an image transfer software of “AxioVision LE”, Carl Zeiss). The area occupied by secretory sites, collagen fibers of connective tissue septa was determined. The effectiveness of the drug was estimated by the following criteria: lower intensity of morphological symptoms of chronic abacterial prostatitis (atrophy and sclerosis): the area occupied by secretory sections, collagen fibers of connective tissue septa.

male C57BL/6 mice = experiment: Metabolic syndrome model in mice (streptozotocin + high-fat diet): pancreas, glucose, testosterone; format: in vivo, mouse
Description: Metabolic disorders were simulated as follows: on Day 2 after birth, male C57Bl/6 mice were injected with streptozotocin at a dose of 200 mg/kg once, subcutaneously in the withers area, and the volume of the injected solution was 30 μl. From week 4 after birth, the animals were transferred to a diet high in fat. For this purpose, the used feed was enriched with heavy saturated fats (30% fat) (Siff EF R/M with 30% Fat Cat No. E15116-34, Germany). The duration of feeding with a high-fat feed was 42 days (from Day 28 to Day 70 of the experiment). […] The control animals received the equivalent volume of a solvent (2% starch mucus), instead of the test compound.
On Days 28, 35, 42, 49, 56, 63, and 70 of the study, blood glucose was determined. The blood glucose level was determined with a glucometer meter (Accu-Chek Performs Nanu (“Roche Diagnostes GmbH”, Germany). Blood glucose was measured in animals after 16-hour feed deprivation; all subsequent measurements of the glucose level were also performed after 16-hour feed deprivation.
On Day 70 day, animals were euthanized in a CO2 chamber. Then, the serum free testosterone level was studied, and the morphological examination of the pancreas was performed.
The level of free testosterone in the serum was evaluated by enzyme immunoassay according to the protocol of manufacturer's test system.
For morphological study, a part of the pancreas adjacent to the spleen was fixed in 10% formalin and poured into paraffin according to the standard method.
Deparaffined sections of the gland were stained with hematoxylin and eosin. On the sections, the area of 10 serial islets of Langerhans was determined by graphic computer analysis, and the total number of cells and the number of pyknotized cells were counted therein. Then, the number of cells per unit islet area and the percentage of the pyknotized cells were calculated. Inflammatory cells (neutrophils, lymphocytes, macrophages) in the pancreatic tissue and their composition were studied by staining of the histological sections with hematoxylin-eosin.

[3] = Treamid 0.5 mg/kg 15 days, Prostamol Uno 50 mg/kg
[4] = anterior part of the prostate gland, Treamid 0.5 mg/kg, Prostamol Uno 50 mg/kg
[5] = Day 70, Treamid (1 mg/kg), n = 8

O=C(CCCC(=O)NCCc1ncc[nH]1)NCCc1ncc[nH]1 [Treamid]
The number of motile sperm cells (%) (male Wistar rats [1]; group X ± m): 69.06 ± 2.98#*⋄ %
The number of motile sperm cells (%) (male Wistar rats [1]; individual animals): 67.04% and 56.84% and 78.65% and 59.09% and 72.63% and 66.67% and 66.99% and 85.55% and 68.08%
increase in the area of the acinar epithelium (male Wistar rats [2]; Treamid 0.5 mg/kg): 22%
Volume of the anterior lobe of the prostate gland, cm^3 (male Wistar rats [2]; [3]): 0.90 ± 0.20 cm^3
Weight coefficient of the anterior lobe of the prostate gland (male Wistar rats [2]; [3]): 1.97 ± 0.47 mg/g
Weight of the anterior lobe of the prostate gland (male Wistar rats [2]; [3]): 976.00 ± 226.62 mg
Area of collagen fibers (male Wistar rats [2]; [4]): 2.64 ± 0.12 %
Area of the acinar epithelium (male Wistar rats [2]; [4]): 26.33 ± 2.63%
Serum glucose concentration (male C57BL/6 mice; Day 28 (before Treamid, given Day 49-70)): 5.36 ± 1.28 mmol/L
Serum glucose concentration (male C57BL/6 mice; Day 35 (before Treamid, given Day 49-70)): 4.21 ± 1.81 mmol/L
Serum glucose concentration (male C57BL/6 mice; Day 42 (before Treamid, given Day 49-70)): 12.75 ± 2.6 mmol/L
Serum glucose concentration (male C57BL/6 mice; Day 49, Treamid 10 mg/kg intragastrically Day 49-70): 13.59 ± 2.41 mmol/L
Serum glucose concentration (mmol/L) (male C57BL/6 mice; Day 56, Treamid 10 mg/kg intragastrically Day 49-70): 12.91 ± 4.48*• mmol/L
Serum glucose concentration (mmol/L) (male C57BL/6 mice; Day 63, Treamid 10 mg/kg intragastrically Day 49-70): 14.47 ± 3.21*• mmol/L
Free testosterone (pg/ml), serum (male C57BL/6 mice; Day 70, Treamid 10 mg/kg): 3.70 ± 0.46 pg/mL
Serum glucose concentration (male C57BL/6 mice; Day 70, Treamid 10 mg/kg intragastrically Day 49-70): 21.82 ± 5.83 mmol/L
% of pyknotized cells in the islet of Langerhans (male C57BL/6 mice; [5]): 0.99 ± 0.06• %
Area of an islet (pixel) (male C57BL/6 mice; [5]): 743399 ± 21134*• pixel
The number of islets in 30 vision fields (male C57BL/6 mice; [5]): 7.4 ± 0.37•
